Assays:
Type in all cases: cell-based, human
MiaPaCa-2 cells [1] = assay: MTS assay of MiaPaCa2 cultures, single 50 μM dose; details: MiaPaCa2, 50 μM
Description: MiaPaCa-2 cells were cultured in complete DMEM media containing 10% fetal bovine serum (FBS) and 1% penicillin-streptomycin, and 1% L-glutamine. BxPc-3 pancreatic cancer cells were cultured in complete RPMI media containing 10% fetal bovine serum (FBS), and 1% penicillin-streptomycin, 1% HEPES buffer, 1% sodium pyruvate and 1% L-glutamine HPDE6-C7 cells were cultured in serum-free keratinocyte SFM media. All cells were maintained at 37° C. in a humidified incubator with 5% CO2. The cells were treated with a single 50 μM dose of vehicle (vehicle only, may be a solvent), T3 alpha (alpha tocotrienol), T3 beta (beta tocotrienol), T3 gamma (gamma tocotrienol), T3 delta (delta tocotrienol), T alpha (alpha tocopherol), T beta (beta tocopherol), TS (tocopherol succinate), GG (geranylgeraniol), SA (succinic acid). A control (no treatment) culture was grown alongside the treatments for comparison. […]

MiaPaCa-2 cells [2] = assay: MTT assay of MiaPaCa2 cultures, single 50 μM dose; parameters: rel amt (relative value set to the control): unit not given here; details: MiaPaCa2, 50 μM; for MTT assay result, av-blank: average minus blank; for MTT assay result, av: average of 7 runs
Description: MiaPaCa-2, BxPc-3, and HPDE6-C7 cells were cultured as described above, and treated with a single 50 μM dose of vehicle (ethanol extracted olive oil), T3 alpha (alpha tocotrienol), T3 beta (beta tocotrienol), T3 gamma (gamma tocotrienol), T3 delta (delta tocotrienol), T alpha (alpha tocopherol), T beta (beta tocopherol), TS (tocopherol succinate), GG (geranylgeraniol), SA (succinic acid). A control culture (vehicle only with no treatment) was grown alongside the treatments for comparison. Cell viability was measured using MTT assay at preselect times of 48 or 120 hours after treatment.

[3] = test system: SW1990 pancreatic cancer cells; assay: MTS assay of SW1990 cultures, single 50 μM dose; details: SW1990, 50 μM
Description: SW1990 pancreatic cancer cells […] were cultured in complete DMEM media containing 10% fetal bovine serum (FBS) and 1% penicillin-streptomycin, and 1% L-glutamine. BxPc-3 pancreatic cancer cells were cultured in complete RPMI media containing 10% fetal bovine serum (FBS), and 1% penicillin-streptomycin, 1% HEPES buffer, 1% sodium pyruvate and 1% L-glutamine. HPDE6-C7 cells were cultured in serum-free keratinocyte SFM media. All cells were maintained at 37° C. in a humidified incubator with 5% CO2. The cells were treated with a single 50 μM dose of vehicle (ethanol extracted olive oil), T3 alpha (alpha tocotrienol), T3 beta (beta tocotrienol), T3 gamma (gamma tocotrienol), T3 delta (delta tocotrienol), T alpha (alpha tocopherol), T beta (beta tocopherol), TS (tocopherol succinate), GG (geranylgeraniol), SA (succinic acid). A control culture (i.e., only vehicle with no treatment) was grown alongside the treatments for comparison. Cell viability was measured using MTS assay at preselect times of 24, 48, or 72 hours after treatment.

In the case of CC(C)=CCC/C(C)=C/CC/C(C)=C/CC/C(C)=C/CO [GG, geranylgeraniol], the “rel amt (relative value set to the control)” value (MiaPaCa-2 cells [1]; 24 hours) is reported as 82, the “MTS assay result, run 1” value (MiaPaCa-2 cells [1]; 24 hours) is reported as 0.186 and the “MTS assay result, run 2” value (MiaPaCa-2 cells [1]; 24 hours) is reported as 0.166. The “MTS assay result, run 3” value (MiaPaCa-2 cells [1]; 24 hours) was 0.175, the “MTS assay result, run 4” value (MiaPaCa-2 cells [1]; 24 hours) was 0.18 and the “MTS assay result, run 5” value (MiaPaCa-2 cells [1]; 24 hours) was 0.196. For the same compound, the “MTS assay result, run 6” value (MiaPaCa-2 cells [1]; 24 hours) was 0.199, the “MTS assay result, run 7” value (MiaPaCa-2 cells [1]; 24 hours) was 0.184 and the “MTS assay result, run 8” value (MiaPaCa-2 cells [1]; 24 hours) was 0.178. For the same compound, the “MTS assay result, run 9” value (MiaPaCa-2 cells [1]; 24 hours) was 0.183, the “rel amt (relative value set to the control)” value (MiaPaCa-2 cells [1]; 48 hours) was 53 and the “MTS assay result, run 1” value (MiaPaCa-2 cells [1]; 48 hours) was 0.154. For the same compound, the “MTS assay result, run 2” value (MiaPaCa-2 cells [1]; 48 hours) was 0.194, the “MTS assay result, run 3” value (MiaPaCa-2 cells [1]; 48 hours) was 0.181 and the “MTS assay result, run 4” value (MiaPaCa-2 cells [1]; 48 hours) was 0.198. The “MTS assay result, run 5” value (MiaPaCa-2 cells [1]; 48 hours) was 0.236, the “MTS assay result, run 6” value (MiaPaCa-2 cells [1]; 48 hours) was 0.198 and the “MTS assay result, run 7” value (MiaPaCa-2 cells [1]; 48 hours) was 0.193. The “MTS assay result, run 8” value (MiaPaCa-2 cells [1]; 48 hours) was 0.192, the “MTS assay result, run 9” value (MiaPaCa-2 cells [1]; 48 hours) was 0.193 and the “rel amt (relative value set to the control)” value (MiaPaCa-2 cells [1]; 72 hours) was 158. For the same compound, the “MTS assay result, run 1” value (MiaPaCa-2 cells [1]; 72 hours) was 0.784, the “MTS assay result, run 2” value (MiaPaCa-2 cells [1]; 72 hours) was 0.713 and the “MTS assay result, run 3” value (MiaPaCa-2 cells [1]; 72 hours) was 0.757. The “MTS assay result, run 4” value (MiaPaCa-2 cells [1]; 72 hours) was 0.734, the “MTS assay result, run 5” value (MiaPaCa-2 cells [1]; 72 hours) was 0.682 and the “MTS assay result, run 6” value (MiaPaCa-2 cells [1]; 72 hours) was 0.665. For the same compound, the “MTS assay result, run 7” value (MiaPaCa-2 cells [1]; 72 hours) was 0.65, the “MTS assay result, run 8” value (MiaPaCa-2 cells [1]; 72 hours) was 0.627 and the “MTS assay result, run 9” value (MiaPaCa-2 cells [1]; 72 hours) was 0.702. For the same compound, the “rel amt (relative value set to the control)” value (MiaPaCa-2 cells [2]; 48 hours) was 92, the “MTT assay result, av-blank” value (MiaPaCa-2 cells [2]; 48 hours) was 0.285 and the “MTT assay result, av” value (MiaPaCa-2 cells [2]; 48 hours) was 0.331. The “MTT assay result, run 1” value (MiaPaCa-2 cells [2]; 48 hours) was 0.329, the “MTT assay result, run 2” value (MiaPaCa-2 cells [2]; 48 hours) was 0.339 and the “MTT assay result, run 3” value (MiaPaCa-2 cells [2]; 48 hours) was 0.321. For the same compound, the “MTT assay result, run 4” value (MiaPaCa-2 cells [2]; 48 hours) was 0.328, the “MTT assay result, run 5” value (MiaPaCa-2 cells [2]; 48 hours) was 0.342 and the “MTT assay result, run 6” value (MiaPaCa-2 cells [2]; 48 hours) was 0.317. For the same compound, the “MTT assay result, run 7” value (MiaPaCa-2 cells [2]; 48 hours) was 0.341, the “rel amt (relative value set to the control)” value (MiaPaCa-2 cells [2]; 120 hours (5 days)) was 93 and the “MTT assay result, av-blank” value (MiaPaCa-2 cells [2]; 120 hours (5 days)) was 1.679. For the same compound, the “MTT assay result, av” value (MiaPaCa-2 cells [2]; 120 hours (5 days)) was 1.731, the “MTT assay result, run 1” value (MiaPaCa-2 cells [2]; 120 hours (5 days)) was 1.738 and the “MTT assay result, run 2” value (MiaPaCa-2 cells [2]; 120 hours (5 days)) was 1.608. For the same compound, the “MTT assay result, run 3” value (MiaPaCa-2 cells [2]; 120 hours (5 days)) was 1.577, the “MTT assay result, run 4” value (MiaPaCa-2 cells [2]; 120 hours (5 days)) was 1.744 and the “MTT assay result, run 5” value (MiaPaCa-2 cells [2]; 120 hours (5 days)) was 2.134. For the same compound, the “MTT assay result, run 6” value (MiaPaCa-2 cells [2]; 120 hours (5 days)) was 1.606, the “MTT assay result, run 7” value (MiaPaCa-2 cells [2]; 120 hours (5 days)) was 1.711 and the “rel amnt (relative value set to the control)” value ([3]; 24 hours) was 92. For the same compound, the “MTS assay result, run 1” value ([3]; 24 hours) was 0.158, the “MTS assay result, run 2” value ([3]; 24 hours) was 0.133 and the “MTS assay result, run 3” value ([3]; 24 hours) was 0.133. For the same compound, the “MTS assay result, run 4” value ([3]; 24 hours) was 0.137, the “MTS assay result, run 5” value ([3]; 24 hours) was 0.131 and the “MTS assay result, run 6” value ([3]; 24 hours) was 0.14. The “MTS assay result, run 7” value ([3]; 24 hours) was 0.132, the “MTS assay result, run 8” value ([3]; 24 hours) was 0.121 and the “MTS assay result, run 9” value ([3]; 24 hours) was 0.136. For the same compound, the “rel amnt (relative value set to the control)” value ([3]; 48 hours) was 83, the “MTS assay result, run 1” value ([3]; 48 hours) was 0.078 and the “MTS assay result, run 2” value ([3]; 48 hours) was 0.129. The “MTS assay result, run 3” value ([3]; 48 hours) was 0.13, the “MTS assay result, run 4” value ([3]; 48 hours) was 0.128 and the “MTS assay result, run 5” value ([3]; 48 hours) was 0.133. The “MTS assay result, run 6” value ([3]; 48 hours) was 0.118, the “MTS assay result, run 7” value ([3]; 48 hours) was 0.14 and the “MTS assay result, run 8” value ([3]; 48 hours) was 0.144. The “MTS assay result, run 9” value ([3]; 48 hours) was 0.125, the “rel amnt (relative value set to the control)” value ([3]; 72 hours) was 158 and the “MTS assay result, run 1” value ([3]; 72 hours) was 0.784. For the same compound, the “MTS assay result, run 2” value ([3]; 72 hours) was 0.713, the “MTS assay result, run 3” value ([3]; 72 hours) was 0.76 and the “MTS assay result, run 4” value ([3]; 72 hours) was 0.734. The “MTS assay result, run 5” value ([3]; 72 hours) was 0.682, the “MTS assay result, run 6” value ([3]; 72 hours) was 0.665 and the “MTS assay result, run 7” value ([3]; 72 hours) was 0.65. The “MTS assay result, run 8” value ([3]; 72 hours) was 0.627 and the “MTS assay result, run 9” value ([3]; 72 hours) was 0.702.
